Data on 14 molecules can be found in US20200369996A1, “Bioreactor Screening Platform for Modelling Human Systems Biology and for Screening for Inotropic Effects of Agents on the Heart” (NOVOHEART LIMITED, priority 2017, published 2020).

“And” between values parts separate entries of the source, which are not always exact repeats. Identical values can stand only once. Like-named read-outs stand apart in the source and are kept apart here.

The test system of data set [1] is human ventricular cardiac tissue strips (hvCTS). As to the kind of experiment: hvCTS drug screening: twitch force under electrical pacing. The class given is cell-based. The following applies: for EC50 / IC50: Homo sapiens; for IC50: read-out: IC50, developed contractile force. On the procedure: One of ordinary skill in the art will recognize that the gels can be formed in any of a variety of sizes and shapes, and the molds used to form such gels can also be formed in any of a variety of sizes and shapes, depending on the intended use of the molded gel. The molded mixtures were then bathed with culture medium (DMEM supplemented with 10% newborn calf serum), and maintained in culture with daily half-medium exchanges. Inserts in the casting molds were removed at 48 hours, yielding a self-assembled hvCTS held between 0.5-mm-diameter circular PDMS posts at each end. It is apparent that the posts can be formed from any flexible material amenable to at least one form of sterilization are suitable. As noted above, the whole mold can be scaled up or down depending on the application, and the posts can also be scaled up or down. In general, the height of the posts would be similar to the height of a well (e.g., about 6 mm in an exemplary embodiment). Any of a wide variety of cross-sectional shapes is contemplated as being suitable for use in the system, apparatus and methods according to the disclosure. At 7 days after hvCTS creation, the hvCTS were used for drug screening.
Initially, pharmacological compounds were prepared for screening. Compounds for unblinded “open label” screening were purchased from Sigma and stock solutions at the highest possible concentrations were prepared according to the product information. Working concentrations over a 5-logarithmic range were prepared for each drug.
Working concentrations over a 5-logarithmic range were prepared for each drug according to the dose-range recommendation provided by the supplier.
New born calf serum containing medium was replaced with DMEM high glucose with HEPES without phenol red for optical measurement of generated force in hvCTS. […] The integrated flexible PDMS posts were used as force sensors, with the post deflection captured in real-time with a high-speed camera (100 frames/s) and LabView software (National Instruments, Austin, Tex., USA), applying a beam-bending equation from elasticity theory to calculate twitch force, as described previously^[2] and incorporated herein by reference. These measurements were obtained with the hvCTS maintained in the original molds where they were created with the hvCTS bathed in culture medium at 37° C. For each drug, force generated in response to 9 doses were measured with the drugs added to the hvCTS at half log increments in a cumulative manner. For each dose, the force generated at 0 Hz, 0.5 Hz, 1 Hz, 1.5 Hz and 2 Hz electrical pacing with field electrodes were measured.
Data analysis. Data were calculated and analyzed by a customized MatLab program. Force frequency curves for each drug were generated by plotting the generated force at 0.5 Hz, 1 Hz, 1.5 Hz and 2 Hz at different concentrations. All forces were normalized to the generated force at 0.5 Hz at the drug-free baseline condition (100%).
[…] The force generated under drug-free baseline condition was defined as 100%. The force generated at each drug concentration was then normalized to the generated force under the cognate drug-free baseline condition. The EC50 of each tested drug was estimated by fitting to a four-parameter dose-response equation given as: Y=Bottom+(Top-Bottom)/(1+10^((Log EC^50^−X)*HillSlope)), using commercial software (GraphPad Software Inc.). X is the logarithm of drug concentrations; […]; Top and Bottom are the Y values of the top and bottom plateaus of the curve itself; Baseline is the Y value that defines 0%—maximal inhibition by a standard drug. Hill Slope quantifies the steepness of the dose-response curve (the higher the Hill Slope, the steeper the curve).

For data set [2] the following is noted: cited from earlier work; for peak plasma concentration for improved ejection fraction and work product: ref [17].
The subject of another data set is canine papillary muscle. The following applies: ref [11]; cited from earlier work.
[3] abbreviates: 1 Hz pacing, unblinded screening, Example 3, read-out: EC50, developed contractile force.
The mark [4] stands for this setting: Unblinded, 1 Hz pacing, read-out: -log EC50 in hvCTS (converted).
Where [5] appears, read: Unblinded, 1 Hz pacing, read-out: EC50 in hvCTS (in brackets).
Where [6] appears, read: 1 Hz pacing, blinded screening, Example 4.
[7] abbreviates: Blinded, 1 Hz pacing, read-out: -log EC50 in hvCTS (converted).
Where [8] appears, read: Blinded, 1 Hz pacing, read-out: EC50 in hvCTS (in brackets).
[9] abbreviates: 1 Hz pacing, blinded screening, Example 4, read-out: EC50, developed contractile force.

Take `CC(=O)Oc1ccccc1C(=O)O` [Aspirin]: the “effect on developed contractile force / contractility” value in data set [1] (blinded screening, Example 4) is “did not show any dose-dependent effect on contractility”.
Consider `C[C@H]1O[C@@H](O[C@H]2[C@@H](O)C[C@H](O[C@H]3[C@@H](O)C[C@H](O[C@H]4CC[C@@]5(C)[C@H](CC[C@@H]6[C@@H]5C[C@@H](O)[C@]5(C)[C@@H](C7=CC(=O)OC7)CC[C@]65O)C4)O[C@@H]3C)O[C@@H]2C)C[C@H](O)[C@@H]1O` [Digoxin], for which the EC50 in data set [1] (read-out: -log EC50 in hvCTS (converted)) was 3.63 µM; in data set [1] (read-out: EC50, developed contractile force), 3.7 µM; in data set [1] (read-out: EC50 in hvCTS (in brackets)) it was 3.65 µM. Further, the “relevant concentration, increased pre-ejection period index” value in data set [2] (ref [10]) was 1 ng/ml (1 nM) ([10], increased pre-ejection.
Regarding `CC(C)N(CCC(C(N)=O)(c1ccccc1)c1ccccn1)C(C)C` (stereo not shown) [Disopyramide], the figures for the EC50 in data set [1] (setting [3]), in data set [1] (setting [4]) and in data set [1] (setting [5]) were 80 µM, 81.3 µM and 82.2 µM, respectively. Besides, the “EC50 of developed tension” value in the data set on canine papillary muscle was 824 μg [11], EC50 of developed tension in canine.
Take `O=C(NCC1CCCCN1)c1cc(OCC(F)(F)F)ccc1OCC(F)(F)F` (stereo not shown) [Flecainide]: in data set [1] (setting [6]), the IC50 was 15 µM. The EC50 in data set [1] (setting [3]) is 75 µM; in data set [1] (setting [7]), 15.1 µM; in data set [1] (setting [8]), 151 µM; in data set [1] (setting [4]), 75.9 µM; in data set [1] (setting [5]), 75 µM.
For `COc1ccc(Cl)cc1C(=O)NCCc1ccc(S(=O)(=O)NC(=O)NC2CCCCC2)cc1` [Glibenclamide], the EC50 in data set [1] (setting [9]) was 3.2 µM; in data set [1] (setting [3]) it was 0.93 µM; in data set [1] (setting [7]) it was 3.16 µM; in data set [1] (setting [8]) it was 3.17 µM; in data set [1] (setting [4]), 0.933 µM; in data set [1] (setting [5]) it was 0.93 µM. The “peak plasma concentration for improved ejection fraction and work product” value in data set [2] (after 5 mg oral administration) is 479 ng/ml and 0.096 μM.
As to `NCCCC[C@H](N[C@@H](CCc1ccccc1)C(=O)O)C(=O)N1CCC[C@H]1C(=O)O` [Lisinopril], the “effect on developed contractile force / contractility” value in data set [1] (blinded screening, Example 4) is “small increase in developed contractile force with increasing concentrations”.
Turning to `Cc1[nH]c(=O)c(C#N)cc1-c1ccncc1` [Milrinone], the half-maximal effective concentration (EC50) is 2.8 µM in data set [1] (setting [9]); 0.41 µM in data set [1] (setting [3]); 2.75 µM in data set [1] (setting [7]); 2.77 µM in data set [1] (setting [8]); 0.407 µM in data set [1] (setting [4]); 0.41 µM in data set [1] (setting [5]).
Turning to `COC(=O)C1=C(C)NC(C)=C(C(=O)OC)C1c1ccccc1[N+](=O)[O-]` [Nifedipine], in data set [2] (ref [23]), the “plasma concentration in patients with ischemic heart disease” value was 29-73 ng/ml and 0.083-0.21 μM.
`NC[C@H](O)c1ccc(O)c(O)c1` [Norepinephrine]: the values for the EC50 in data set [1] (setting [9]), in data set [1] (setting [7]) and in data set [1] (setting [8]) were 0.35 µM, 0.347 µM and 0.35 µM, respectively. The “plasma level after epinephrine infusion” value in data set [2] (ref [24]) is 267 pg/ml and 0.15 nM.
For the molecule `CCN(CC)CCNC(=O)c1ccc(N)cc1` [Procainamide], in the data set with canine papillary muscle, the “EC50 of developed tension” value was 7952 μg [11], EC50 of developed tension in canine.
For the molecule `C=C[C@H]1C[N@@]2CC[C@H]1C[C@@H]2[C@@H](O)c1ccnc2ccc(OC)cc12` [Quinidine], the IC50 in data set [1] (setting [6]) came to 200 µM. The values for the EC50 in data set [1] (setting [7]) and in data set [1] (setting [8]) were 204 µM and 200 µM, respectively. In addition, the peak plasma concentration in data set [2] (at 495 mg, ref [26]) is 2.07 μg/ml and 6.3 μM.
For the molecule `CCOC(=O)[C@H](CCc1ccccc1)N[C@@H](C)C(=O)N1[C@H](C(=O)O)C[C@@H]2CCC[C@@H]21` [Ramipril], in data set [1] (blinded screening, Example 4), the “effect on developed contractile force / contractility” value was “did not show any dose-dependent effect on contractility”.
Turning to `Cc1cccc(C)c1NC(=O)C(C)N` (stereo not shown) [Tocainide], the “effect on developed contractile force” value in data set [1] (all concentrations and pacing frequencies, unblinded screening, Example 3) is “did not show any effect on developed contractile force”; in data set [1] (all tested pacing frequencies, Example 2 / FIG. 2), “no dose-dependent effect on contractile force”; in data set [1] (all tested pacing frequencies, Example 2 / FIG. 2, listed as tocainide), “No consistent change in developed contractile force”. For the same molecule, the “EC50 of developed tension” value with canine papillary muscle is 1212 μg [11], EC50 of developed tension in canine.
For `CCCCNC(=O)NS(=O)(=O)c1ccc(C)cc1` [Tolbutamide], the “effect on developed contractile force / contractility” value in data set [1] (blinded screening, Example 4) is on record as “did not show any dose-dependent effect on contractility”. Moreover, in data set [2] (after 1250 mg oral administration), the “peak plasma concentration for improved ejection fraction and work product” value is 63.5 μg/ml and 230 μM.

By EC50 is commonly meant the concentration needed to bring the measured effect to its halfway point. Usually IC50 stands for the concentration that gives 50% inhibition.
